Experimental data taken from patent publication US12037339B2, “Substituted imidazoles as GLP-1 receptor agonists” (Eccogene Inc., priority 2020, dated 2024).

Columns and labels:
[1] = biological target: (Homo sapiens, UniProt P43220); experiment: h-GLP-1 activity assay (cAMP HTRF, HEK293 cells with stable expression of human GLP-1); assay type: cell-based; details: relative EC50, 10 nM human GLP-1 set as 100% response, 30 min at 37° C.
Method in brief: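 cAMP accumulation (HTRF, 665/615 nm, interpolated from standard curve) after 30 min, 37 °C compound treatment of stable human GLP-1 HEK293 cells with 0.5 mM IBMX. EC50 by 4-parameter regression, reported relative to 10 nM GLP-1 (7-37) as full response.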

human OATP1B1 = biological target: T1, human OATP1B1 (Homo sapiens, UniProt Q9Y6L6); experiment: OATP1B1 inhibition assay (HEK293 cells over-expressing human OATP1B1, substrate estradiol 17-β-D-glucuronide); assay type: cell-based; details: 30 min pre-incubation, 10 min coincubation with estradiol 17-β-D-glucuronide
T1 sequence (Q9Y6L6 1-691): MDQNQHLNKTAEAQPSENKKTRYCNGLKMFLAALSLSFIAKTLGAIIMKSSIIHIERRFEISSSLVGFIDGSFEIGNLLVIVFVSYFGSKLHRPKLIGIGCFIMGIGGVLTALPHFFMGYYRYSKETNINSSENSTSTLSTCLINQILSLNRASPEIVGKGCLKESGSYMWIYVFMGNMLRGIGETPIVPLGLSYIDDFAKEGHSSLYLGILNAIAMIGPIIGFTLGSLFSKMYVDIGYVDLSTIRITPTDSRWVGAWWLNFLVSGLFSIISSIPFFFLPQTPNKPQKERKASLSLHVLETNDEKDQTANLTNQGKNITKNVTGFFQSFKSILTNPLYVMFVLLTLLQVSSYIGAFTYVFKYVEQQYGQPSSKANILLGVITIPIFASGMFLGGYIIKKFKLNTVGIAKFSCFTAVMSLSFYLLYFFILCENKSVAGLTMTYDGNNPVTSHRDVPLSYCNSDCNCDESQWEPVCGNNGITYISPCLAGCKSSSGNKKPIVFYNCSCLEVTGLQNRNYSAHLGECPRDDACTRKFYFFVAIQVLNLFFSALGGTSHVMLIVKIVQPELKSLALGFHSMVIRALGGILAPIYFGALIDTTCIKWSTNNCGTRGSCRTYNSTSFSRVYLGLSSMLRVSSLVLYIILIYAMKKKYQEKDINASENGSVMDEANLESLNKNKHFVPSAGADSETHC
Protocol: HEK293 cells over-expressing human OATP1B1 were used for determining the inhibitory effect of compounds of the application on OATP1B1-mediated transportation. Cells were seeded at a density of 400,000 cells per well in 24-well plates. When reaching confluence of 80˜90%, cells were washed with pre-warmed assay buffer and then pre-incubated with serially diluted test compounds or negative control (NC) or positive inhibitor (PC, Rifampicin) for 30 min, followed by coincubation with the same test compound and OATP1B1 substrate estradiol 17-β-D-glucuronide for 10 min. Cells were washed with pre-cooled buffer, and lysed by freeze-thaw cycles. After extraction by mixture of […] of methanol, the substrate concentration was determined by LC-MS/MS, and protein concentration was determined by BCA method. The substrate transport velocity U is calculated as U=Clysate/(P*T), where Clysate is substrate concentration in lysate, P is protein concentration in lysate, and T is incubation time. Relative transport activity Y is calculated as Y=UTA/UNC. The IC50 value of the tested compounds was calculated by fitting Y to compound concentration using a 4-parameter non-linear regression routine in Prism.

[2] = Pharmacokinetics after oral gavage in fasted SD rats; assay type: in vivo; details: rat, 5 mg/kg, plasma
Protocol: Compounds of the present application were formulated in 10% DMSO/10%/Cremophor EL/15% PEG400/65% 100 mM Glycine-NaOH pH 10, and administered via oral gavage (P0) at the dosages of 5 or 10 mg per kilogram body weight in fasted SD rats. Plasma samples were collected at 0.25, 0.5, 1, 2, 4, 6, 8, and 24 hours post dosing. Compound concentration was determined by LC-MS and pharmacokinetics parameters were calculated by WinNonlin 8.2 using Non-Compartmental Analysis model.

Sequence of (Homo sapiens, UniProt P43220) (P43220 24-463): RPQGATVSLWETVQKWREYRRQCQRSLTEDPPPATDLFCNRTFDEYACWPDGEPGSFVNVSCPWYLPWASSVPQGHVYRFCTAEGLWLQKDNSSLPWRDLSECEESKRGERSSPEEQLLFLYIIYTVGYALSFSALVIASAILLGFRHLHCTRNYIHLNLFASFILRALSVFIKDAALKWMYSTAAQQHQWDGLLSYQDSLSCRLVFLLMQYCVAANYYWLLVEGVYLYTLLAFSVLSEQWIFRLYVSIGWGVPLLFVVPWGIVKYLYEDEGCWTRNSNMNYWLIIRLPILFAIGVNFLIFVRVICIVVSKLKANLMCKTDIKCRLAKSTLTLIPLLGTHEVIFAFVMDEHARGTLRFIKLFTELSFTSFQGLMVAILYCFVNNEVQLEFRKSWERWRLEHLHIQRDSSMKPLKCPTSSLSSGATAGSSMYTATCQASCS

| SMILES | EC50 [1] [nM] | IC50 (human OATP1B1) [nM] | AUC [2] [ng·h/mL] | Cmax [2] [ng/mL] | bioavailability [2] [%] |
| --- | --- | --- | --- | --- | --- |
| Cc1cc(-n2nc3c(c2-n2ccn(-c4ccc5c(cnn5C)c4F)c2=O)[C@H](C)N(C(=O)c2cc4cc([C@@H]5CCOC(C)(C)C5)ccn4c2C2(c4noc(=O)[nH]4)CC2)CC3)cc(C)c1F (single isomer, unassigned) [Compound 10] | < 20 | > 1000 |  |  |  |
| Cc1cc(-n2nc3c(c2-n2ccn(-c4ccc5c(cnn5C)c4F)c2=O)[C@H](C)N(C(=O)c2cn4cc([C@@H]5CCOC(C)(C)C5)ccc4c2C2(c4noc(=O)[nH]4)CC2)CC3)cc(C)c1F (single isomer, unassigned) [Compound 19] | < 20 | > 1000 | 3000 | 572 | 26 |
| C[C@H]1c2c(nn(-c3ccc(F)c(C4CC4)c3)c2-n2ccn(-c3ccc4c(cnn4C)c3F)c2=O)CCN1C(=O)c1cc2cc([C@@H]3CCOC(C)(C)C3)ccn2c1C1(c2noc(=O)[nH]2)CC1 (single isomer, unassigned) [Compound 73] | < 20 | > 1000 | 10200 | 1700 | 90 |
| C[C@H]1c2c(nn(-c3ccc(F)c(C4CC4)c3)c2-n2ccn(-c3ccc4c(cnn4C)c3F)c2=O)CCN1C(=O)c1cn2cc([C@@H]3CCOC(C)(C)C3)ccc2c1C1(c2noc(=O)[nH]2)CC1 (single isomer, unassigned) [Compound 76] | < 20 | > 1000 | 5320 | 962 | 30 |
| C[C@H]1c2c(nn(-c3ccc(F)c(C4CC4)c3)c2-n2ccn(-c3ccc4c(cnn4C)c3F)c2=O)CCN1C(=O)c1cn2nc([C@@H]3CCOC(C)(C)C3)ccc2c1C1(c2noc(=O)[nH]2)CC1 (single isomer, unassigned) [Compound 90] | < 20 | > 1000 | 3340 | 1370 | 59 |
| C[C@H]1c2c(nn(-c3ccc(F)c(C4CC4)c3)c2-n2ccn(-c3ccc4c(cnn4C)c3F)c2=O)CCN1C(=O)c1cn2cc([C@H]3CCOC(C)(C)C3)cc(F)c2c1C1(c2noc(=O)[nH]2)CC1 (single isomer, unassigned) [Compound 91] | < 20 | > 1000 | 2660 | 738 | 22 |
| COCc1ccc(-n2ccn(-c3c4c(nn3-c3cc(C)c(F)c(C)c3)CCN(C(=O)c3cc5cc(C6CCOCC6)ccc5n3-c3ccccc3C(=O)O)[C@H]4C)c2=O)cc1 [Compound 57, (S)-2-(2-(2-(4-fluoro-3,5-dimethylphenyl)-3-(3-(4-(methoxymethyl)phenyl)-2-oxo-2,3-dihydro-1H-imidazol-1-yl)-4-methyl-4,5,6,7-tetrahydro-2H-pyrazolo[4,3-c]pyridine-5-carbonyl)-5-(tetrahydro-2H-pyran-4-yl)-1H-indol-1-yl)benzoic acid] | > 100 |  |  |  |  |
| Cc1cc(-c2ccc3c(c2)cc(C(=O)N2CCn4nc(-c5ccc(F)cc5)c(-n5ccn(-c6ccc7c(cnn7C)c6F)c5=O)c4C2)n3Cc2noc(=O)[nH]2)ccn1 [Compound 58, 3-((2-(3-(3-(4-fluoro-1-methyl-1H-indazol-5-yl)-2-oxo-2,3-dihydro-1H-imidazol-1-yl)-2-(4-fluorophenyl)-4,5,6,7-tetrahydropyrazolo[1,5-a]pyrazine-5-carbonyl)-5-(2-methylpyridin-4-yl)-1H-indol-1-yl)methyl)-1,2,4-oxadiazol-5(4H)-one] | < 20 |  |  |  |  |
| Cc1cc(-n2nc3c(c2-n2ccn(-c4ccc5c(cnn5C)c4F)c2=O)CN(C(=O)c2cc4cc(C5CCOCC5)ccc4n2-c2cccc4[nH]nnc24)CC3)cc(C)c1F [Compound 59, 1-(5-(1-(1H-benzo[d][1,2,3]triazol-4-yl)-5-(tetrahydro-2H-pyran-4-yl)-1H-indole-2-carbonyl)-2-(4-fluoro-3,5-dimethylphenyl)-4,5,6,7-tetrahydro-2H-pyrazolo[4,3-c]pyridin-3-yl)-3-(4-fluoro-1-methyl-1H-indazol-5-yl)-1,3-dihydro-2H-imidazol-2-one] | > 100 |  |  |  |  |
